In publication PMC12386934, “Characteristics and Potential of KSL, KSL-W, and Dadapin-1 Antimicrobial Peptides for Preventing Infections of Orthopedic Prosthetic Devices: Identifying the Most Robust Candidate” (International Journal of Molecular Sciences, 2025):
Where a SMILES comes first, the peptide text is derived from it.

Tested on: MG63 cells co-cultured with S. aureus ATCC 25923
Assay: Suppression of S. aureus cytotoxicity in co-culture, LDH assay
Type: cell-based, human
Settings: MG63 co-cultured with S. aureus ATCC 25923, 24 h, lowest concentration tested
Experimental: KSL-W was the peptide selected to investigate the efficacy in suppressing the cytotoxicity of S. aureus ATCC 25923 on osteoblast-like MG63 cells. S. aureus ATCC 25923 was thawed from the frozen stock and plated on MHA and incubated at 37 °C for 24 h.
A suspension of MG63 cells was prepared in complete DMEM at a concentration of 5 × 10^4 cells/mL. A total of 100 µL of cell suspension was added to each well of a 96-well cell culture-treated plate (137101, Nunclon Delta Black Microwell, ThermoScientific, Thermo Fisher Scientific, Segrate, Italy). After cell seeding, the plate was incubated for a day at 37 °C under standard culture conditions. […]
Cytotoxicity was assessed by measuring the release of lactate dehydrogenase (LDH) from damaged cells by the LDH Cytotoxicity Assay (ab197004, Abcam, Cambridge, UK), strictly following the instructions of the manufacturer. […] After 10 min shaking, the plate was read in fluorescence (excitation: 535 nm; emission 587 nm) by an Infinite 200 PRO mod. M PLEX multifunction plate reader (Tecan Group Ltd., Männedorf, Switzerland). […]
Data in relative fluorescence units (RFU) from the investigation on KSL-W suppression of S. aureus cytotoxicity were processed as follows. The mean of the duplicate readings from each single treated well was calculated. […]

## CC(C)[C@H](NC(=O)[C@H](Cc1c[nH]c2ccccc12)NC(=O)[C@H](Cc1ccccc1)NC(=O)[C@@H](NC(=O)[C@@H](NC(=O)[C@H](CCCCN)NC(=O)[C@@H](N)CCCCN)C(C)C)C(C)C)C(=O)N[C@@H](CCCCN)C(=O)N[C@@H](Cc1ccccc1)C(=O)N[C@@H](CCCCN)C(=O)O [KSL-W] (H-KKVVFWVKFK-OH)
  concentration completely suppressing cytotoxicity due to S. aureus: 75 µg/mL
